As a reminder, the IC50 is the point on the concentration scale where inhibition reaches its midpoint.

Starred links: 1 amine or outer side, 2 acyl side, 3 side chain; linkers in the order of their positions; H or OH if unused. Non-standard residues stand in square brackets, D forms with d. Residues, ends and D or L forms follow the SMILES beside them. *: point of attachment. Propanoyl(3-(3-pyridyl)) = O=C(CCc1cccnc1)*; Propanoyl(3-(4-pyridyl)) = O=C(CCc1ccncc1)*; Acetyl(pyridin-2-yl) = O=C(Cc1ccccn1)*; Sta = CC(C)C[C@H](N)[C@@H](O)CC(=O)O; Acetyl(3-pyridyl) = O=C(Cc1cccnc1)*; Acetyl(4-pyridyl) = O=C(Cc1ccncc1)*; X3 = O=C(CC1CCCN([*:1])C1)[*:2]; Nicotinoyl = O=C(c1cccnc1)*; X2 = O=C(CCC(=O)*)c1ccccn1; X6 = O=C(CCC(=O)*)c1cccnc1; X5 = O=C(CCC(O)c1ccccn1)*; X7 = O=C(CCC(O)c1cccnc1)*; Nle = CCCC[C@H](N)C(=O)O; X1 = O=C(CCCc1ccccn1)*; X8 = O=C(CCCc1cccnc1)*; Boc = CC(C)(C)OC(=O)*

13 compounds from US4725580A (Sanofi, priority 1985, dated 1988) can be followed below.

In this test the target is T1, human plasma renin (Homo sapiens, UniProt P00797).
T1 construct: from tissue; host or cells: human plasma pool
T1 sequence (P00797 67-406): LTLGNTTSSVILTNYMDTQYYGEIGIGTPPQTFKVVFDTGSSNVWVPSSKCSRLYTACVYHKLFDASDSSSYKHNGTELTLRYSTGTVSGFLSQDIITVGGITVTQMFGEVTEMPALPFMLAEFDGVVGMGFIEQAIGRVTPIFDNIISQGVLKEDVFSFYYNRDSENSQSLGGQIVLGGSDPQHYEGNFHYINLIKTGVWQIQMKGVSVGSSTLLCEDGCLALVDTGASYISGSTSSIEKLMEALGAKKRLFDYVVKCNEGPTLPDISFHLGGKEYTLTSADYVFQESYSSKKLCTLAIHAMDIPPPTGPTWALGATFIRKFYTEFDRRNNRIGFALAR
Description: Inhibition of human plasma renin activity (PRA) in vitro, angiotensin I released measured by radioimmunoassay. In kind it is biochemical. To be noted: human plasma pool rich in renin, 60 minutes at 37° C., phosphate buffer pH 7.4; 5 to 10 doses; read-out: Inhibition of human PRA -log IC50 M pH 7.4 (converted). As for the experimental part:
The products according to the invention were studied for their therapeutic properties and especially their inhibitory action on enzymes. More particularly, the compounds were evaluated "in vitro" in terms of their inhibition of human plasma renin activity (PRA).
Human plasma contains the substrate angiotensinogen and the enzyme renin. […] An inhibitor of the conversion enzyme, phenylmethylsulfonyl fluoride (PMSF), is added to the incubation medium.
420 microliters of human plasma
11 to 50 microliters of the product to be studied, at variable concentrations
A solution of acetic acid in methaol (19/1 by volume) and a solution of sodium hydroxide in methanol (2/1 by volume) are prepared. In a mixture of equal volumes of these 2 solutions, a 0.001M stock solution of the peptide is prepared. The subsequent dilutions of the peptide are then made up in the phosphate buffer.
The results are expressed by their logarithmic value (-log IC50).

With `CCCC[C@H](NC(=O)[C@H](Cc1ccccc1)NC(=O)CCC(=O)c1ccccn1)C(=O)N[C@@H](CC(C)C)[C@@H](O)CC(=O)N[C@@H](CC(C)C)C(=O)N[C@@H](Cc1ccccc1)C(=O)OC` [SR 42793] (X2-F[Nle][Sta]LF-OMe), the IC50 was 891 nM.

Regarding `CCCC[C@H](NC(=O)[C@H](Cc1ccccc1)NC(=O)c1cccnc1)C(=O)N[C@@H](CC(C)C)[C@@H](O)CC(=O)N[C@@H](C)C(=O)N[C@@H](CC(C)C)C(=O)OC` [SR 42873, N-(Nicotinoyl)-Phe-Nle-Sta-Ala-Leu-OMe] (Nicotinoyl-F[Nle][Sta]AL-OMe), the IC50 is 81.3 nM.

For the compound `CCCC[C@H](NC(=O)[C@H](Cc1ccccc1)NC(=O)CCC(O)c1ccccn1)C(=O)N[C@@H](CC(C)C)[C@@H](O)CC(=O)N[C@@H](CC(C)C)C(=O)N[C@@H](Cc1ccccc1)C(=O)OC` (stereo partly shown) [SR 42991] (X5-F[Nle][Sta]LF-OMe), the IC50 was 58.9 nM.

As for `CCCC[C@H](NC(=O)[C@H](Cc1ccccc1)NC(=O)CCC(=O)c1cccnc1)C(=O)N[C@@H](CC(C)C)[C@@H](O)CC(=O)N[C@@H](CC(C)C)C(=O)N[C@@H](Cc1ccccc1)C(=O)OC` [SR 43108, N--(4-(pyridin-3-yl)-4-oxobutyryl)-Phe--Nle--Sta--Leu--Phe--OMe] (X6-F[Nle][Sta]LF-OMe), the IC50 is 447 nM.

Regarding `CCCC[C@H](NC(=O)[C@H](Cc1ccccc1)NC(=O)CCC(O)c1cccnc1)C(=O)N[C@@H](CC(C)C)[C@@H](O)CC(=O)N[C@@H](CC(C)C)C(=O)N[C@@H](Cc1ccccc1)C(=O)OC` (stereo partly drawn) [SR 43123, (R,S)--N--(4-(pyridin-3-yl)-4-hydroxybutyryl)-Phe--Nle--Sta--Leu--Phe--OMe] (X7-F[Nle][Sta]LF-OMe), the IC50 is 81.3 nM. Consider `CCCC[C@H](NC(=O)[C@H](Cc1ccccc1)NC(=O)Cc1cccnc1)C(=O)N[C@@H](CC(C)C)[C@@H](O)CC(=O)N[C@@H](CC(C)C)C(=O)N[C@@H](Cc1ccccc1)C(=O)OC` [SR 43282, N--(pyridin-3-ylacetyl)-Phe--Nle--Sta--Leu--Phe--OMe] ({Acetyl(3-pyridyl)}-F[Nle][Sta]LF-OMe), for which the IC50 was 79.4 nM. For the compound `CCCC[C@H](NC(=O)[C@H](Cc1ccccc1)NC(=O)Cc1ccccn1)C(=O)N[C@@H](CC(C)C)[C@@H](O)CC(=O)N[C@@H](CC(C)C)C(=O)N[C@@H](Cc1ccccc1)C(=O)OC` [SR 43314, N--(pyridin-2-ylacetyl)-Phe--Nle--Sta--Leu--Phe--OMe] ({Acetyl(pyridin-2-yl)}-F[Nle][Sta]LF-OMe), the IC50 is 295 nM. The value for `CCCC[C@H](NC(=O)[C@H](Cc1ccccc1)NC(=O)CCc1cccnc1)C(=O)N[C@@H](CC(C)C)[C@@H](O)CC(=O)N[C@@H](CC(C)C)C(=O)N[C@@H](Cc1ccccc1)C(=O)OC` [SR 43454, N--(3-(pyridin-3-yl)propionyl)-Phe--Nle--Sta--Leu--Phe--OMe] ({Propanoyl(3-(3-pyridyl))}-F[Nle][Sta]LF-OMe) was 67.6 nM; that for `CCCC[C@H](NC(=O)[C@H](Cc1ccccc1)NC(=O)CCCc1ccccn1)C(=O)N[C@@H](CC(C)C)[C@@H](O)CC(=O)N[C@@H](CC(C)C)C(=O)N[C@@H](Cc1ccccc1)C(=O)OC` [SR 43484, N--(4-(pyridin-2-yl)butyryl)-Phe--Nle--Sta--Leu--Phe--OMe] (X1-F[Nle][Sta]LF-OMe) was 100 nM.

For the compound `CCCC[C@H](NC(=O)[C@H](Cc1ccccc1)NC(=O)CC1CCCN(C(=O)OC(C)(C)C)C1)C(=O)N[C@@H](CC(C)C)[C@@H](O)CC(=O)N[C@@H](CC(C)C)C(=O)N[C@@H](Cc1ccccc1)C(=O)OC` (stereo partly shown) [SR 43519, N--(N--Boc--piperidin-3-ylacetyl)-Phe--Nle--Sta--Leu--Phe--OMe] (Boc-[X3]F[Nle][Sta]LF-OMe), the IC50 was 174 nM.

Take `CCCC[C@H](NC(=O)[C@H](Cc1ccccc1)NC(=O)CCc1ccncc1)C(=O)N[C@@H](CC(C)C)[C@@H](O)CC(=O)N[C@@H](CC(C)C)C(=O)N[C@@H](Cc1ccccc1)C(=O)OC` [SR 43633, N--(3-(pyridin-4-yl)propionyl)-Phe--Nle--Sta--Leu--Phe--OMe] ({Propanoyl(3-(4-pyridyl))}-F[Nle][Sta]LF-OMe): the IC50 was 204 nM. The value for `CCCC[C@H](NC(=O)[C@H](Cc1ccccc1)NC(=O)Cc1ccncc1)C(=O)N[C@@H](CC(C)C)[C@@H](O)CC(=O)N[C@@H](CC(C)C)C(=O)N[C@@H](Cc1ccccc1)C(=O)OC` [SR 43781, N--(pyridin-4-ylacetyl)-Phe--Nle--Sta--Leu--Phe--OMe] ({Acetyl(4-pyridyl)}-F[Nle][Sta]LF-OMe) was 132 nM; that for `CCCC[C@H](NC(=O)[C@H](Cc1ccccc1)NC(=O)CCCc1cccnc1)C(=O)N[C@@H](CC(C)C)[C@@H](O)CC(=O)N[C@@H](CC(C)C)C(=O)N[C@@H](Cc1ccccc1)C(=O)OC` [SR 43782, N--(4-(pyridin-3-yl)butyryl)-Phe--Nle--Sta--Leu--Phe--OMe] (X8-F[Nle][Sta]LF-OMe) was 41.7 nM.
